Key:
[1] = tested on: New Zealand white rabbit; experiment: Serum lipids in hyperlipidemia New Zealand rabbits on high fat diet; type: in vivo; conditions: positive control 2.5 mg/kg/day intragastric, 12 weeks, vs model group
Description: Forty-eight male New Zealand rabbits weighed 1.8 to 2.2 kg were housed under 12 h dark-12 h light cycles and allowed food and water ad libitum to adapt to the housing environment for one week, and then randomly divided into 6 groups: • 1) Control group (Normal diet, n=8); Administered intragastrically with ultrapure water; • 2) Model group (High fat diet, n=8); Administered intragastrically with ultrapure water; • 3) Leonurine crystal form A in low dose group (High fat diet, n=8); Administered intragastrically at a dose of 4 mg/kg/day; • 4) Leonurine crystal form A in middle dose group (High fat diet, n=8); Administered intragastrically at a dose of 8 mg/kg/day; • 5) Leonurine crystal form A in high dose group (High fat diet, n=8); […] Administered intragastrically at a dose of 2.5 mg/kg/day; Rabbits were weighed before administered drugs every week, where the dosage of the drug for rabbits is calculate according to the weight; and housed in an air-conditioned room under (24±1° C. room temperature and 55±5% air humidity) and allowed enough food and water ad libitum. After 12 weeks of administration, the rabbits were fasted for 12 h, and blood (2 ml) was drawn from the marginal ear vein for hematology analysis. Hematology analysis: blood samples were let for standing for 2 h and centrifuged (3000 rpm, 10 min, 4° C.) to obtain serum. The serum samples were tested according to the protocols recommended by Nanjing Jiancheng Bioengineering Institute. The total cholesterol (TC), triacylglycerol (TG), low-density cholesterol (LDL-C) and […] (HDL-C) levels in the serum samples were assessed using automatic microplate reader and automatic biochemical analyzer. Statistical analysis: GraphPad Prism 5 software was used to analyze and draw figure. Results were expressed as the mean±standard (mean±SD), and statistical analysis was performed by one-way analysis of variance (ANOVA) or student's t test. A difference with P<0.05 was considered statistically significant. Statistical significance was set at *P<0.05, **P<0.01, ***P<0.001 versus the model group.

[2] = tested on: ApoE knockout mice; experiment: Serum lipids in hyperlipidemia ApoE knockout mice on high fat diet; type: in vivo; conditions: positive control 3 mg/kg/day intragastric, 4 weeks, vs model group
Description: Fifteen C57BL/6J mice (male, 6-8 weeks) and seventy-five ApoE knockout mice (male, 6-8 weeks) were used for experiments. C57BL/6J mice were fed with normal diet, and ApoE knockout mice were fed for 1 week with a diet of normal/high fat diet ratio of 1/1.
Mice were weighed before administered drugs every week, where the dosage of the drug for mice is calculate according to the weight; and housed under 24±1° C. room temperature and 55±5% air humidity condition, and allowed enough food and water ad libitum. After the drug administration continuously for 4 weeks, the mice were anesthetized with pentobarbital sodium according to body weight. Blood (0.5 ml per mouse) was drawn from the inner canthus vein for hematology analysis. Hematology analysis: blood samples were let for standing for 2 h and centrifuged (3000 rpm, 10 min, 4° C.) to obtain serum. The total cholesterol (TC), triacylglycerol (TG) and low-density cholesterol (LDL-C) levels in the serum samples were assessed using automatic biochemical analyzer. Statistical analysis: GraphPad Prism 5 software was used to analyze and draw figure. Results were expressed as the mean±standard (mean±SD), and statistical analysis was performed by one-way analysis of variance (ANOVA) or student's t test. A difference with P<0.05 was considered statistically significant. Statistical significance was set at *P<0.05, **P<0.01, ***P<0.001 versus the model group.

[3] = Accelerated stability test of leonurine crystal forms; type: physicochemical; conditions: 40° C.; for Crystal stability: 70% RH, 10 days
From the text: In the invention, the dominant medicinal crystal form was also screened by the accelerated stability experimental method, and observed the transformation among the various crystal forms.

[4] = Hygroscopicity, dynamic vapor sorption (DVS), 0-95% RH; type: physicochemical; conditions: for change of crystal form / hygroscopicity (in words): range of 0-95% relative humidity
Description: Dynamic vapor sorption (DVS) method, instrument model: SMS DVS Intrinsic, 0˜95% RH, temperature: 25° C.; FTIR method, instrument model: Nicolet 6700, sectral range: 4000˜400 cm^−1, resolution ratio: 4 cm^−1, scanning times: 32, the infrared spectra of the samples were determined by KBr pressed-disk technique method, temperature: 25° C.;
In this invention, it is named as leonurine crystal form A, which is monohydrate crystal form, square block crystal (as shown in FIG. 13), no crystal transformation before melting, dehydrates at 120˜150° C. and transform into anhydrous crystal form B, and decomposes at about 250° C. […] Under the condition of, in the suspension experiment at 25° C., in methanol, ethanol, isopropanol, acetone, acetonitrile, tetrahydrofuran, nitromethane, ethyl acetate, isopropyl acetate, isoamyl alcohol, methyl tert-butyl ether, toluene, methyl isobutyl ketone, n-hexane, n-heptane, ether, dichloromethane, chloroform, petroleum ether, water and other solvents; and under the condition of, in the suspension experiment at 50° C., in methanol, ethanol, acetone, methyl ethyl ketone, isopropyl acetate, methyl tert-butyl ether, toluene, n-hexane, n-heptane, diethyl ether, chloroform, petroleum ether, water and other solvents; and under most solvent conditions in suspension and volatilization of mixed solvents at 25° C. and 50° C., form A can be obtained. […] In a range of 0˜95% RH, the dehydration and water absorption behavior of the crystal form is very weak.

[5] = relative humidity 60%-80%, 10-day stability test

SMILES	serum total cholesterol (TC) [1]	serum triacylglycerol (TG) [1]	serum total cholesterol (TC) [2]	serum triacylglycerol (TG) [2]	Crystal stability [3]	Crystal stability ([3]; listed as B)	crystal transformation behavior [3, 5]	hygroscopicity, water absorption ([4]; 60% RH)	hygroscopicity, water absorption ([4]; 80% RH)	change of crystal form [4]	hygroscopicity (in words) [4]	Crystal stability ([3]; listed as C)	Crystal stability ([3]; listed as D)	Crystal stability ([3]; listed as E)	hygroscopicity (in words) [3, 5]	hygroscopicity relative to crystal form A [3, 5]	Crystal stability ([3]; listed as F)	Crystal stability ([3]; listed as form F)
CC(C)c1c(C(=O)Nc2ccccc2)c(-c2ccccc2)c(-c2ccc(F)cc2)n1CC[C@@H](O)C[C@@H](O)CC(=O)O [Atorvastatin, reference compound]	no significant difference	reduced	reduced	reduced	–	–	–	–	–	–	–	–	–	–	–	–	–	–
COc1cc(C(=O)OCCCCNC(=N)N)cc(OC)c1O [crystal form B, 4-guanidino-1-butyl 4-hydroxy-3,5-dimethoxybenzoate]	–	–	–	–	transformed into crystal form A	form into A	appeared crystal transformation	60% RH, water absorption 0.14%	80% RH, water absorption 0.30%	changed into crystal form A	slightly hygroscopicity	–	–	–	–	–	–	–
COc1cc(C(=O)OCCCCNC(=N)N)cc(OC)c1O [crystal form C, 4-guanidino-1-butyl 4-hydroxy-3,5-dimethoxybenzoate]	–	–	–	–	transformed into crystal form A	–	appeared crystal transformation	60% RH, water absorption 0.56%	80% RH, water absorption 1.05%	changed into crystal form A	–	form into A	–	–	–	–	–	–
COc1cc(C(=O)OCCCCNC(=N)N)cc(OC)c1O [crystal form D, 4-guanidino-1-butyl 4-hydroxy-3,5-dimethoxybenzoate]	–	–	–	–	transformed into crystal form A	–	appeared crystal transformation	60% RH, water absorption 1.63%	80% RH, water absorption 0.98%	changed into crystal form A	–	–	form into A	–	–	–	–	–
COc1cc(C(=O)OCCCCNC(=N)N)cc(OC)c1O [crystal form E, 4-guanidino-1-butyl 4-hydroxy-3,5-dimethoxybenzoate]	–	–	–	–	remain unchanged	–	did not appear crystal transformation	60% RH, water absorption 0.07%	80% RH, water absorption 0.12%	didn't change	slight hygroscopicity	–	–	stable	strong	about ten times	–	–
COc1cc(C(=O)OCCCCNC(=N)N)cc(OC)c1O [crystal form F, 4-guanidino-1-butyl 4-hydroxy-3,5-dimethoxybenzoate]	–	–	–	–	–	–	appeared crystal transformation	60% RH, water absorption 0.14%	80% RH, water absorption 0.30%	changes into crystal form A	slightly hygroscopicity	–	–	–	–	–	form into A	transformed into crystal form A
